Results taken from PMC10104807, “Modulation of tau tubulin kinases (TTBK1 and TTBK2) impacts ciliogenesis” (Scientific Reports, 2023).
Like-named read-outs stand apart in the source and are kept apart here.

How the values were obtained:
PIP5K2C = molecular target: T1, PIP5K2C (Homo sapiens, UniProt Q8TBX8); experiment: DiscoverX scanMAX binding assay; details: 1 μM
T1 construct: purchased Eurofins (radiometric) / Eurofins DiscoverX scanMAX / Reaction Biology / SignalChem
T1 sequence (Q8TBX8 1-421): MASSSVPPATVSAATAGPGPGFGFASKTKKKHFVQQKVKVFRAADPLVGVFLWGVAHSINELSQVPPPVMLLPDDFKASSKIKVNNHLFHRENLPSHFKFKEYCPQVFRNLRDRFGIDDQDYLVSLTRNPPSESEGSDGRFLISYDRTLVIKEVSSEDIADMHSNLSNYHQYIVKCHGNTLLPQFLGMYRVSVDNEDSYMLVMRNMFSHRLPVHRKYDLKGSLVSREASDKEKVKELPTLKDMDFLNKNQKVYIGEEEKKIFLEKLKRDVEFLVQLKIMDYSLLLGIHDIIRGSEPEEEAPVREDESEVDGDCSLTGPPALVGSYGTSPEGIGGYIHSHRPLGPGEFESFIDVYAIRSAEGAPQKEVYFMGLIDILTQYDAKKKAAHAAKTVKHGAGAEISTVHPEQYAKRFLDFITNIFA
From the text: (§1) This panel includes 403 wild-type (WT) human kinases but not TTBK1/2. […] Substantial overlap between the MRC and DiscoverX scanMAX kinase panels allows the comparison of results for the same kinases in two different assay formats (enzymatic versus binding, respectively) at the same concentration. Selectivity results are included in two columns within Table 1. […] The rightmost column converts this selectivity score into the number of kinases with a PoC < 10 in the scanMAX panel.
(§2) The Eurofins DiscoverX Corporation scanMAX assay platform was employed to assess the selectivity of specific analogs at a single concentration (1 µM). As described previously, this assay platform profiles a compound against 403 wild-type human kinases and delivers percent of control (PoC) values. These percent of control values are included in Table 1 and corresponding kinome tree diagrams as well as tables for each analog included in Fig. S1.

[1] = molecular target: T2, JAK2(JH1domain-catalytic) (Homo sapiens, UniProt O60674); experiment: DiscoverX scanMAX binding assay
T2 construct: JAK2(JH1domain-catalytic); purchased Eurofins (radiometric) / Eurofins DiscoverX scanMAX / Reaction Biology / SignalChem
From the text: as §1, §2

MAP4K2 = molecular target: T3, MAP4K2 (Homo sapiens, UniProt Q12851); experiment: DiscoverX scanMAX binding assay; details: for MAP4K2 % control at 1000nM: 1 μM
T3 construct: purchased Eurofins (radiometric) / Eurofins DiscoverX scanMAX / Reaction Biology / SignalChem
T3 sequence (Q12851 1-820): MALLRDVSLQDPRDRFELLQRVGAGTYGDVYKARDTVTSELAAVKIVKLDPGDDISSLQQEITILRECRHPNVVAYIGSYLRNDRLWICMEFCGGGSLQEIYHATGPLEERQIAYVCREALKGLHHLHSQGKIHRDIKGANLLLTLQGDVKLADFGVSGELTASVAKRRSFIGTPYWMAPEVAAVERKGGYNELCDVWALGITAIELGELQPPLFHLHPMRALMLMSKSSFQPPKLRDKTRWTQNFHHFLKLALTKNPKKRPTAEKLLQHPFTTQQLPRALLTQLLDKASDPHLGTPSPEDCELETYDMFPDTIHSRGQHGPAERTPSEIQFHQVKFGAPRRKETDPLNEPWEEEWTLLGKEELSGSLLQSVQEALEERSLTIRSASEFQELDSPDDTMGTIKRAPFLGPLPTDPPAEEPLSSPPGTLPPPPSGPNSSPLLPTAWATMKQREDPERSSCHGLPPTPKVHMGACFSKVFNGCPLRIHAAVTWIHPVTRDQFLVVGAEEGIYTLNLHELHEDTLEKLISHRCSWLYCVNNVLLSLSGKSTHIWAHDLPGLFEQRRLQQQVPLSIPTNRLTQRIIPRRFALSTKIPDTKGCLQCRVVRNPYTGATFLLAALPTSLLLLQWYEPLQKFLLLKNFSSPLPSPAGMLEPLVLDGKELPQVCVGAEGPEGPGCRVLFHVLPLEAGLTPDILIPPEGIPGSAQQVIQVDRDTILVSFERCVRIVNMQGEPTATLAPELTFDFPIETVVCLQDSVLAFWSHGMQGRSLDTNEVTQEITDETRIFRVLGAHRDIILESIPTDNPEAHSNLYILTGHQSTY
From the text: as §1, §2

PKNB(M.tuberculosis) = molecular target: T4, PKNB(M.tuberculosis) (Mycobacterium tuberculosis, UniProt P9WI81); experiment: DiscoverX scanMAX binding assay; details: for PKNB(M.tuberculosis) % control at 1000nM: 1 μM
T4 construct: purchased Eurofins (radiometric) / Eurofins DiscoverX scanMAX / Reaction Biology / SignalChem
From the text: as §1, §2

[2] = molecular target: T5, RPS6KA4(Kin.Dom.2-C-terminal) (Homo sapiens, UniProt O75676); experiment: DiscoverX scanMAX binding assay; details: 1 μM
T5 construct: RPS6KA4(Kin.Dom.2-C-terminal); purchased Eurofins (radiometric) / Eurofins DiscoverX scanMAX / Reaction Biology / SignalChem
From the text: as §1, §2

TTBK1 kinase domain = molecular target: T6, TTBK1 kinase domain (Homo sapiens, UniProt Q5TCY1); experiment: Thermal shift assay; format: binding; details: kinase domain 2 µM, inhibitor 10 µM
T6 construct: Either the TTBK1 or TTBK2 kinase domain at 2 µM
Experimental: A Real-Time PCR Mx3005p machine (Stratagene) was used to measure the fluorescence spectrum. The Tm shift assays and data evaluation for melting temperatures were performed according to the previously described protocol.

NLuc-TTBK1 = molecular target: T7, NLuc-TTBK1 (Homo sapiens, UniProt Q5TCY1); experiment: TTBK1 NanoBRET cellular target engagement assay in HEK293 cells; format: cell-based; details: 2 μM tracer 29
T7 construct: host or cells: HEK293
Experimental: HEK293 cells were transfected with constructs of TTBK1 or TTBK2 tagged with NLuc on the N- or C-terminus as previously described[43] Constructs for NanoBRET measurements of TTBK1 (NLuc-TTBK1 and TTBK1-NLuc) and TTBK2 (NLuc-TTBK2 and TTBK2-NLuc) were kindly provided by Promega. NLuc orientations used in the respective assays are indicated. Cells were plated in 96-well tissue culture treated plates (Corning 3917) at a cell density of 2 × 10^5 cells/mL, with a total volume of 100 μL per well in DMEM. […] NanoBRET plates were read after addition of 50 μL of a stock solution (3X) containing NanoBRET NanoGlo substrate (Promega N2161), extracellular NanoLuc inhibitor (Promega N2161) and Opti-MEM. For a 96-well plate the 3X stock solution was prepared with 30 μL of NanoBRET NanoGlo substrate, 10 μL of extracellular NanoLuc inhibitor, and 4960 μL of Opti-MEM without phenol red. […] HEK293 cells were transfected with NLuc-TTBK1 or NLuc-TTBK2. […] One biological replicate was plotted in GraphPad Prism with log[inhibitor] vs. response (three parameters) and included in Fig. 3C. NanoBRET assays were carried out in dose-response format as described previously. NLuc orientations used in the respective assays are as follows: NLuc-TTBK1, NLuc-TTBK2, and PIP4K2C-NLuc (for PI5[…]γ). […] Data are reported as IC50 ± standard error mean (SEM). For PI5[…]γ, 9 was tested in 12-point dose-response format with a top concentration of 10 μM (data in Table S2). One biological replicate was plotted in GraphPad Prism with log[inhibitor] vs. response (three parameters).

[3] = intact HEK293 cells, read-out: TTBK1 intact cell NB IC50
[4] = permeabilized HEK293 cells (digitonin), read-out: TTBK1 permeabilized cell NB IC50

T7 sequence (Q5TCY1 whole entry): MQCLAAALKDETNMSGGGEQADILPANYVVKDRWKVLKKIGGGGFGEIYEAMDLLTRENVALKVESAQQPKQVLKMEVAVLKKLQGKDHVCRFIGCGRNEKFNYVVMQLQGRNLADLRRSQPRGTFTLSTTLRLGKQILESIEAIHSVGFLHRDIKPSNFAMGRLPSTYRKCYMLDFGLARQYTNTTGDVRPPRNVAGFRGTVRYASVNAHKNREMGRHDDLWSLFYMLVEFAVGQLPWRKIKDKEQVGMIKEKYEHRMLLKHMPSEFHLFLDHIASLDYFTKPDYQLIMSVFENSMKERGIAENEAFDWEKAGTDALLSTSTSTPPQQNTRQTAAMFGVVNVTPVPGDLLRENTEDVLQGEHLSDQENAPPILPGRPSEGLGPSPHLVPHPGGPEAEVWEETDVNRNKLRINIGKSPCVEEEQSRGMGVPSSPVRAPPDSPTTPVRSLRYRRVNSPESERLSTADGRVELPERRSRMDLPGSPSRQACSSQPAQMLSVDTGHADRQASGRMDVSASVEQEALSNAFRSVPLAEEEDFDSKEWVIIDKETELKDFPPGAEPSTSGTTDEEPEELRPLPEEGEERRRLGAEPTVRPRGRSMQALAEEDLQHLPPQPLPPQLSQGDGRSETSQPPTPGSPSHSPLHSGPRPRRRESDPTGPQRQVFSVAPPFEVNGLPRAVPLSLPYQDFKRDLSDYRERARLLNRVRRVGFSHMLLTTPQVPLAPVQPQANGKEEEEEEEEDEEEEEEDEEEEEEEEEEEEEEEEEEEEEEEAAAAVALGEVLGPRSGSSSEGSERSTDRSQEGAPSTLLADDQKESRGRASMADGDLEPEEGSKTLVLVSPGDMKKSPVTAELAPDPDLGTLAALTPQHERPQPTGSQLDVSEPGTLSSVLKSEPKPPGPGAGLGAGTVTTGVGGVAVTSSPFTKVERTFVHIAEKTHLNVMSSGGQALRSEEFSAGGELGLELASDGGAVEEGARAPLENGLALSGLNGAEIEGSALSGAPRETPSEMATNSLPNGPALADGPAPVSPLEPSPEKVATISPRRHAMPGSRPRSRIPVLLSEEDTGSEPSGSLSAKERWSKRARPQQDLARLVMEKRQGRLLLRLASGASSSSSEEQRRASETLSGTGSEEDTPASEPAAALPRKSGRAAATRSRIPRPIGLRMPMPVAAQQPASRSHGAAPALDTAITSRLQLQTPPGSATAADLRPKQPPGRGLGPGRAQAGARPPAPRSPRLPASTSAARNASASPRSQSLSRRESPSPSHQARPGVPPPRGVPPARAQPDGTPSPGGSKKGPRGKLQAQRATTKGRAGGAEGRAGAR
T4 sequence (P9WI81 whole entry): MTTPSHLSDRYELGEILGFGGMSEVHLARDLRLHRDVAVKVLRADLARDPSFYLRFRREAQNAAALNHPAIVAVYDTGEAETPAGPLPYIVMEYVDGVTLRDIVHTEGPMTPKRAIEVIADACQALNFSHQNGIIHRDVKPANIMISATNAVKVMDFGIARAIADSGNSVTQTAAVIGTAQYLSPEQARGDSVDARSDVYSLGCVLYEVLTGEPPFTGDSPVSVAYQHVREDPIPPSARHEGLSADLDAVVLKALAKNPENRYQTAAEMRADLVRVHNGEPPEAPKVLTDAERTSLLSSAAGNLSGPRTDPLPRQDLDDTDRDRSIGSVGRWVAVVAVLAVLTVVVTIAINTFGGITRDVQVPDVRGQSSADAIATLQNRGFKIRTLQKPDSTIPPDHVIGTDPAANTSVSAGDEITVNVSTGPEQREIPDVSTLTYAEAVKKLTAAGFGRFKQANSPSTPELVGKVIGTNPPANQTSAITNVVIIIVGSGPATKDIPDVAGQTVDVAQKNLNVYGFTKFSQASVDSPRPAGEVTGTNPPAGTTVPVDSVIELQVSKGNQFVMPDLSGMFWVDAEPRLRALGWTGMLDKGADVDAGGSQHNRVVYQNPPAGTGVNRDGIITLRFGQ
T6 sequence (Q5TCY1 13-320): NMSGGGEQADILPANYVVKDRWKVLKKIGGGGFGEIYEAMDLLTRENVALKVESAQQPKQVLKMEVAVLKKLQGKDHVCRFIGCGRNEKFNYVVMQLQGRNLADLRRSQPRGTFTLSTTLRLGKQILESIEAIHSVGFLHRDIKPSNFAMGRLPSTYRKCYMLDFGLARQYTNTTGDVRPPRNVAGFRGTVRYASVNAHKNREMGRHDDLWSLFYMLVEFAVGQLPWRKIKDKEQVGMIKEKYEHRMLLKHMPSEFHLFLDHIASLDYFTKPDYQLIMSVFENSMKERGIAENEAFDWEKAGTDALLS
T5 sequence (O75676 411-674 limits assumed): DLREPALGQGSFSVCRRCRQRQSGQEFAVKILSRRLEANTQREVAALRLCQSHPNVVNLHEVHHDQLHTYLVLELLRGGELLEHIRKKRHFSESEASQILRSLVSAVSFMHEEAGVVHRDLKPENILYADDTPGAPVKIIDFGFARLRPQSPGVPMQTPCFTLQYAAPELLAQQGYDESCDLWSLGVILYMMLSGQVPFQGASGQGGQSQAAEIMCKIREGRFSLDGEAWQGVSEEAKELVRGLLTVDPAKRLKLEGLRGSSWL
T2 sequence (O60674 849-1124 limits assumed): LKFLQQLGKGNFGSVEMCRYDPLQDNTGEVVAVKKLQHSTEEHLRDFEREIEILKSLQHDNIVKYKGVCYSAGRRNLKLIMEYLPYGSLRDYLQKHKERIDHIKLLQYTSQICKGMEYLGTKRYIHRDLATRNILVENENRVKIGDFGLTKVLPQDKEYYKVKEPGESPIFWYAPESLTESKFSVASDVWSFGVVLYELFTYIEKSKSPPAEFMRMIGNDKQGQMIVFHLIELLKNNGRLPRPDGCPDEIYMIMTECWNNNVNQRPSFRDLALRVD

Row | SMILES | PIP5K2C (PI5P4Kγ) % control at 1000nM / DiscoverX PoC value (PIP5K2C) [% control] | percent of control (binding) at 1 µM ([1]; read-out: JAK2(JH1domain-catalytic) % control at 1000nM) [%] | percent of control (binding) at 1 µM (MAP4K2; read-out: MAP4K2 % control at 1000nM) [%] | kinase binding, % of control at 1 µM (PKNB(M.tuberculosis); read-out: PKNB(M.tuberculosis) % control at 1000nM) [%] | RPS6KA4(Kin.Dom.2-C-terminal) % control at 1000nM [2] [% control] | MAP4K2 % control at 1000nM (MAP4K2) [% control] | PKNB(M.tuberculosis) % control at 1000nM (PKNB(M.tuberculosis)) [% control] | ΔTm TTBK1 (TTBK1 kinase domain) [°C] | IC50 (NLuc-TTBK1; [3]) [µM] | IC50 (NLuc-TTBK1; [4]) [µM] | JAK2(JH1domain-catalytic) % control at 1000nM ([1]; 1 μM) [% control]
1 | CC(C)(O)C#Cc1ccc2[nH]c3c(c2c1)-c1nc(N)ncc1CCC3 [AMG28, reference compound] | 3.1 | 6.9 | 1.3 | 0.1 | – | – | – | – | – | – | –
2 | CC(C)(O)C#Cc1ccc2[nH]c3c(c2c1)-c1nc(N)ncc1CC3 [Compound 1] | 0 | – | – | – | 7.3 | 2 | 1.7 | 6.1 | > 30 | 2.5 | –
3 | CC(C)(O)C#Cc1ccc2[nH]c3c(c2c1)-c1nc(N)ncc1CCCC3 [Compound 2] | – | – | – | – | – | – | – | – | > 30 | 19 | –
4 | CC(C)(O)C#Cc1ccc2[nH]cc(-c3ccnc(N)n3)c2c1 [Compound 3] | 0.2 | – | – | – | 0.1 | 1.6 | 0.9 | 6.9 | – | – | 0.5
5 | COC(C)(C)C#Cc1ccc2[nH]c3c(c2c1)-c1nc(N)ncc1CCC3 [Compound 11] | – | – | – | – | – | – | – | – | > 30 | > 30 | –
